Assay results reported in patent publication US10376577B2, “Refined product obtained from rice hull and preparation process and use thereof” (China Medical University, priority 2014, dated 2019).

Tested on: CT26 cells
Assay: Synergistic anticancer effect of refined product and 5-FU on colon carcinoma cells
Format: in vivo, mouse
Conditions: BALB/c mice with subcutaneous CT26, end of 3rd week, treatments per Table 8, mean ± S.D.
Description: The male BALB/c mice were randomly divided into the following groups (n=8 for each group): a normal control group, a pathological control group, a 5-FU group, and a synergy group. 1×10^6 CT26 cells were subcutaneously injected into the leg of each mouse in the pathological control group, the 5-FU group, and the synergy group. The mice in the normal control group received no CT26 cells.
After the injection of CT26 cells, the mice in the 5-FU group, the synergy group, and the pathological control group were subjected to the treatments shown in Table 8 until the end of the 3rd week after the injection of CT26 cells. The mice in the normal control group received no treatment.
At the end of the 3rd week after the injection of CT26 cells, the mice in each group were anesthetized using CO2, and blood was collected from the celiac vein. The blood collected was subjected to total white blood cell counting using an automated hematology analyzer (Sysmex, KX-21 N). Besides, tumors were collected and weighted.

O=c1[nH]cc(F)c(=O)[nH]1 [5-FU, 5-fluorouracil]
Tumor weight (pathological control 4.10 ± 0.92): 3.19 ± 1.47
Number of total white blood cells (pathological control 6.59 ± 1.46): 4.46 ± 0.77
